# According to US8202868B2, “4-piperazinyl-pyrimidine compounds suitable for treating disorders that respond to modulation of the dopamine D3 receptor” (Abbott GmbH & Co. KG, priority 2004, dated 2012):
# Counter-ions that a name gives are not always drawn. Like-named read-outs stand apart in the source and are kept apart here.
# Assays:
# [1] = target: T1, human dopamine D2L receptors (long isoform) (Homo sapiens, UniProt P14416); assay: Dopamine D2L receptor binding, [125I] iodospiperone displacement
# T1 construct: expressed in transfected cells; host or cells: HEK-293
# T1 sequence (P14416 whole entry, canonical isoform): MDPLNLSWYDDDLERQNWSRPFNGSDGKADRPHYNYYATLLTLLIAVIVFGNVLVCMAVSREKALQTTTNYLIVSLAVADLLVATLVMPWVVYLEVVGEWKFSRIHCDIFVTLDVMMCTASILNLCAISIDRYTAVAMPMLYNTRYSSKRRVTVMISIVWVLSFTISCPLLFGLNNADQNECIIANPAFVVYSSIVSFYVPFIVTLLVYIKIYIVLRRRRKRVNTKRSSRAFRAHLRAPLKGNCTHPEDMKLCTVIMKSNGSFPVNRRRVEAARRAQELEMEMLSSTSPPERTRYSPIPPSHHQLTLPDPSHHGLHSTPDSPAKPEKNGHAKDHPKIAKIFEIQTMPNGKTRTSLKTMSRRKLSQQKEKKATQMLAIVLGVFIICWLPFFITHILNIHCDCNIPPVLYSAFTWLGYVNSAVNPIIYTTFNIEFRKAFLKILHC
# Protocol: (§1) The substance to be tested was either dissolved in methanol/Chremophor® (BASF-AG) or in dimethyl sulfoxide and then diluted with water to the desired concentration.
# (§2) Each assay mixture was run in triplicate.
# The incubation buffer contained 50 mM tris, 120 mM NaCl, 5 mM KCl, 2 mM CaCl2, 2 mM MgCl2 and 0.1% bovine serum albumin. The buffer was adjusted to pH 7.4 with HCl.
# (§3) After having been incubated at 25° C. for 60 minutes, the assay mixtures were filtered through a Whatman GF/B glass fiber filter under vacuum using a cell collecting device. The filters were transferred to scintillation viols using a filter transfer system. After 4 ml of Ultima Gold® (Packard) have been added, the samples were shaken for one hour and the radioactivity was then counted in a Beta-Counter (Packard, Tricarb 2000 or 2200CA). The cpm values were converted into dpm using a standard quench series and the program belonging to the instrument.
# (§4) The inhibition curves were analyzed by means of iterative nonlinear regression analysis using the Statistical Analysis System (SAS) which is similar to the “LIGAND” program described by Munson and Rodbard.
# [2] = target: T2, human dopamine D3 receptors (Homo sapiens, UniProt P35462); assay: Dopamine D3 receptor binding, [125I]-iodosulpride displacement; conditions: for Ki: membranes of HEK-293 cells, 0.1 nM [125I]-iodosulpride, 25° C., 60 minutes; for Ki(D2)/Ki(D3): selectivity ratio of receptor binding constants
# T2 construct: expressed in transfected cells; host or cells: HEK-293
# T2 sequence (P35462 whole entry): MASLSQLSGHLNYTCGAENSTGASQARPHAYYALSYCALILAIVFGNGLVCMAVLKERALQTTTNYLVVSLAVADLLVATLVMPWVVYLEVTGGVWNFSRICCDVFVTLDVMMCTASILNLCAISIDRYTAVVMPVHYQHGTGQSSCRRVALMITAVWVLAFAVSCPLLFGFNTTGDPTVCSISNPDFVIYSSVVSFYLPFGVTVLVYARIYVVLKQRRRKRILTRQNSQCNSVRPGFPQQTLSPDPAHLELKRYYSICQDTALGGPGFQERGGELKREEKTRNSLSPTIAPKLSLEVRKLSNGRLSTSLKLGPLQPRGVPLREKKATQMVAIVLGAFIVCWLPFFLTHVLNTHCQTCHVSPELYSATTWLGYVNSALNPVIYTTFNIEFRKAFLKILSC
# Protocol: as §1, §2
# The incubation buffer contained 50 mM tris, 120 mM NaCl, 5 mM KCl, 2 mM CaCl2, 2 mM MgCl2 and 0.1% bovine serum albumin, 10 μM quinolone and 0.1% ascorbic acid (prepared fresh daily). The buffer was adjusted to pH 7.4 with HCl.
# as §3, §4
# [3] = membranes of HEK-293 cells, 0.01 nM [125I] iodospiperone, 25° C., 60 minutes, read-out: Ki(D2)
SMILES,Ki [1],Ki [2],Ki(D2)/Ki(D3) [2],"Ki [1, 3]"
"CC(C)(C)c1nc(C2CCC2)cc(N2CCN(CCCSc3nncs3)CC2)n1 [Example 1, 2-tert-Butyl-4-cyclobutyl-6-{4-[3-([1,3,4]thiadiazol-2-ylsulfanyl)-pronyl]-piperazin-1-yl}-pyrimidine]",49 nM,0.9 nM,54,
C[C@@H](COc1nccc(O)n1)CN1CCN(c2cc(C3CCC3)nc(C(C)(C)C)n2)CC1 [Example 52],,11.2 nM,82,926 nM
"Cn1c(SCCCN2CCN(c3cc(C4CC4)nc(C(C)(C)C)n3)CC2)nnc1-c1cnccn1 [Example 56, 2-tert-butyl-4-{4-[3-(5-pyrazin-4-methyl-4H-[1,2,4]triazol-3-ylsulfanyl)-propyl]-piperazin-1-yl}6-cyclopropyl-pyrimidine hydrochloride]",,0.47 nM,109,51.2 nM
"CC(C)(C)c1nc(C2CCC2)cc(N2CCN(CCCOc3ccnc(O)n3)CC2)n1 [Example 24, 4-{3-[4-(2-tert-Butyl-6-cyclobutyl-pyrimidin-4-yl)-piperazin-1-yl]-propoxy}-pyrimidin-2-ol]",,1.2 nM,93,112 nM
"CC(C)(C)c1nc(C2CCC2)cc(N2CCN(CCCCNC(=O)c3ccc(F)cc3)CC2)n1.Cl [Example 10, N-{4-[4-(2-tert-Butyl-6-cyclobutyl-pyrimidin-4-yl)-piperazin-1-yl]-butyl}-4-fluoro-benzamide hydrochloride]",,0.5 nM,163,87 nM
